The values below come from ChEMBL document CHEMBL1287722, “Azaindole N-methyl hydroxamic acids as HIV-1 integrase inhibitors-II. The impact of physicochemical properties on ADME and PK” (Bioorg Med Chem Lett, 2010).

Series [1] has as its system Human immunodeficiency virus 1. Nature of the series: Antiviral activity against HIV1 RF infected in human CEM-SS cells assessed as inhibition of virus-induced cytopathic effect after 6 days by XTT assay. The class given is functional, organism-based. The note with it: Human immunodeficiency virus 1, RF, 144 h.
The target of series [2] is Human immunodeficiency virus type 1 integrase (Human immunodeficiency virus 1, UniProt Q7ZJM1). Nature of the series: Inhibition of HIV1 RF integrase after 50 mins by strand transfer scintillation proximity assay.
Chain of Human immunodeficiency virus type 1 integrase (Q7ZJM1 whole entry): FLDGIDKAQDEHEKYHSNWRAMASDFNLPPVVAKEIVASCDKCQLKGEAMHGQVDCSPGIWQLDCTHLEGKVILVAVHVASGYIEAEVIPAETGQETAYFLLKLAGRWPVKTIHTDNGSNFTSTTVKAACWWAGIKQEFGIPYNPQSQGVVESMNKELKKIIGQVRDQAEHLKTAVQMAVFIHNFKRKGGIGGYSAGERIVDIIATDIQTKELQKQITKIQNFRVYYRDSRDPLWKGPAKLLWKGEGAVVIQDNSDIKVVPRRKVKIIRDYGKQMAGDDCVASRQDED
Series [3] can be described thus: Cytotoxicity against human CEM-SS cells by XTT assay. It is filed as cell-based.
The nature of series [4]: Metabolic stability in human hepatocyte assessed as extraction ratio at 4 hrs. It is filed as ADME, cell-based. Conditions: hepatocytes.
Series [5] can be described thus: Half life in dog at 1 mg/kg, iv and 5 mg/kg, po. It is filed as ADME, organism-based, Canis lupus familiaris. The note with it: in vivo.
The nature of series [6]: Oral bioavailability in dog at 1 mg/kg, iv and 5 mg/kg, po. The class given is ADME, organism-based, Canis lupus familiaris. The note with it: in vivo.
Series [7] in a line: Volume of distribution at steady state in dog at 1 mg/kg, iv and 5 mg/kg, po. Conditions: in vivo, read-out: Vdss. It is filed as ADME, organism-based, Canis lupus familiaris.
Series [8] is described as follows: Plasma clearance in dog at 1 mg/kg, iv and 5 mg/kg, po. The class given is ADME, organism-based, Canis lupus familiaris.
Another series deals with Cytochrome P450 3A4 (Homo sapiens, UniProt P08684). Nature of the series: Inhibition of CYP3A4. The class given is ADME.
Chain of Cytochrome P450 3A4 (P08684 whole entry): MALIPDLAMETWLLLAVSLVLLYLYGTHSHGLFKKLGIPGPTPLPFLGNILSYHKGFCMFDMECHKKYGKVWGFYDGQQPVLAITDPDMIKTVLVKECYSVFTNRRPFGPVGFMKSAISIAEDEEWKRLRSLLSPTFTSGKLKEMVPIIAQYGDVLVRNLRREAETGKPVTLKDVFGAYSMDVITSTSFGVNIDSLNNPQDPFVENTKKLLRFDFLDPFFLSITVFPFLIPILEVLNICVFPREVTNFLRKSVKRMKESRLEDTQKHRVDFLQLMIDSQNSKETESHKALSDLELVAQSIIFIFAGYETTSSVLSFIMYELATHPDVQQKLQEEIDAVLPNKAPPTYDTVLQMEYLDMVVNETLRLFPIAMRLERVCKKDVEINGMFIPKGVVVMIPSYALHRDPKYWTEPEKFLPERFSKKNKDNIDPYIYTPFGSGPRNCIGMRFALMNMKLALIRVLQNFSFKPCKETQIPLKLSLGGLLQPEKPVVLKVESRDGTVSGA
The target in the next series is Cytochrome P450 2C19 (Homo sapiens, UniProt P33261). Nature of the series: Inhibition of CYP2C19. It is filed as ADME.
Chain of Cytochrome P450 2C19 (P33261 whole entry): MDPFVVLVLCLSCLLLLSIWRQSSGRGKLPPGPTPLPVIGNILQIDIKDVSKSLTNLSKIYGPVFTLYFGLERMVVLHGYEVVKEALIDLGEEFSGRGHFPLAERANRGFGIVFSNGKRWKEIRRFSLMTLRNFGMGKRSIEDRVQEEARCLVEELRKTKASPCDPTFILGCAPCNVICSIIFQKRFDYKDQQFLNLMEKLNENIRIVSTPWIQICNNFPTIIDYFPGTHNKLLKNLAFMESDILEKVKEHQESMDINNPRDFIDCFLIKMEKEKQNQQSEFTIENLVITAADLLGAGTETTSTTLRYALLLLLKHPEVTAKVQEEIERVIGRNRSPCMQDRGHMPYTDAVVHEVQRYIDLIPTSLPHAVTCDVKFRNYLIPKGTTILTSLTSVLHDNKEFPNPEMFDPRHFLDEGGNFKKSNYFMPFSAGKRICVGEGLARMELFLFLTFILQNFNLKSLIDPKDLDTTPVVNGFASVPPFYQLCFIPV
The nature of series [9]: Inhibition of magnesium dependent protein kinase.
The next series has as its target T1, Cytochrome P450 2C8 (Homo sapiens, UniProt P10632).
T1 sequence (P10632 whole entry): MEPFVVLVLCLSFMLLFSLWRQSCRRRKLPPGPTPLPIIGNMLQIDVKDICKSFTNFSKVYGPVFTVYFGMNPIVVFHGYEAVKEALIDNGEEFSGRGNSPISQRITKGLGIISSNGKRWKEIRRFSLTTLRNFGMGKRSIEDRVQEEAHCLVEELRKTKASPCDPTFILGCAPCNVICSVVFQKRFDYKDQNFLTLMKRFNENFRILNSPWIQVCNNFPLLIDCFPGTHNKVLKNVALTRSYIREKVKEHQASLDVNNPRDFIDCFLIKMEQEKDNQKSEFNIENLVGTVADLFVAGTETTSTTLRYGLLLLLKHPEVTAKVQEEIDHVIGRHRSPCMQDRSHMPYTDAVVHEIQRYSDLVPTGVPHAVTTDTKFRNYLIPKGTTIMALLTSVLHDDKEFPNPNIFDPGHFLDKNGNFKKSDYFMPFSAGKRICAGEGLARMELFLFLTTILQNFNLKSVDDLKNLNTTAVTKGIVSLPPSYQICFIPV
Nature of the series: Inhibition of CYP2C8. The class given is ADME.

Series [10] can be described thus: Blood clearance in human. It is filed as ADME, organism-based. Conditions: whole blood.
In series [11] the target is Voltage-gated inwardly rectifying potassium channel KCNH2 (Homo sapiens, UniProt Q12809). The series is described as follows: Inhibition of human ERG.
Chain of Voltage-gated inwardly rectifying potassium channel KCNH2 (Q12809 whole entry): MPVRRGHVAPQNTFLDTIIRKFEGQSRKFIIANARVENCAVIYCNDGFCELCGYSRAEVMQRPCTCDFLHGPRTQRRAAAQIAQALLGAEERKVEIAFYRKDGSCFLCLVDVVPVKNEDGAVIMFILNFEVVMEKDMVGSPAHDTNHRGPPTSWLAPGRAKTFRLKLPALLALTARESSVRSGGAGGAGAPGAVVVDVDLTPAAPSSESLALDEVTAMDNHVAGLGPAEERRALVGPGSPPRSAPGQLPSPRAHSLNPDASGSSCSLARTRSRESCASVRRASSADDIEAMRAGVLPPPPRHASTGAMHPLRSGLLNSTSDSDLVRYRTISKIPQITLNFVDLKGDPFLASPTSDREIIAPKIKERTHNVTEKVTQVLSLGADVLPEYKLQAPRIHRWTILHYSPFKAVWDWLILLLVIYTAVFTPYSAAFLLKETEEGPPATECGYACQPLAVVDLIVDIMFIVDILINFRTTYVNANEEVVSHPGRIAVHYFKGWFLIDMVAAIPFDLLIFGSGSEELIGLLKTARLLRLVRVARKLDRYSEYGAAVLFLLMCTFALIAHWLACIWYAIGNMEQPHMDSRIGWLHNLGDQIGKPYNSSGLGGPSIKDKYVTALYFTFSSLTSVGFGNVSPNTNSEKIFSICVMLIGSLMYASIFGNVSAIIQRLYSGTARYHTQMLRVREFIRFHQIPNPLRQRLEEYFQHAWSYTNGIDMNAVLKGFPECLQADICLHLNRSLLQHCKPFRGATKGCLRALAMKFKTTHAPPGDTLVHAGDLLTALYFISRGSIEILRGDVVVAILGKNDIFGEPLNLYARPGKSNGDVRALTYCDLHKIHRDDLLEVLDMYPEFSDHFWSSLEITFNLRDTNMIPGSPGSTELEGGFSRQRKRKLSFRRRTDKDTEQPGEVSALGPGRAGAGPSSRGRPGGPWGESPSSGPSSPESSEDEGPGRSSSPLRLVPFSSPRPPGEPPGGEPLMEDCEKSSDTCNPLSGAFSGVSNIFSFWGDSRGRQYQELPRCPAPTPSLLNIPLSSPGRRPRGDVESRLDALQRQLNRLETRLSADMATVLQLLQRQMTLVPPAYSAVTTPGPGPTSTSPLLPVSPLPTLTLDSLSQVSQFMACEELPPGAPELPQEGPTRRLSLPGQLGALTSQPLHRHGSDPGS
Another series concerns the target T2, Cytochrome P450 1A2 (Homo sapiens, UniProt P05177).
T2 sequence (P05177 whole entry): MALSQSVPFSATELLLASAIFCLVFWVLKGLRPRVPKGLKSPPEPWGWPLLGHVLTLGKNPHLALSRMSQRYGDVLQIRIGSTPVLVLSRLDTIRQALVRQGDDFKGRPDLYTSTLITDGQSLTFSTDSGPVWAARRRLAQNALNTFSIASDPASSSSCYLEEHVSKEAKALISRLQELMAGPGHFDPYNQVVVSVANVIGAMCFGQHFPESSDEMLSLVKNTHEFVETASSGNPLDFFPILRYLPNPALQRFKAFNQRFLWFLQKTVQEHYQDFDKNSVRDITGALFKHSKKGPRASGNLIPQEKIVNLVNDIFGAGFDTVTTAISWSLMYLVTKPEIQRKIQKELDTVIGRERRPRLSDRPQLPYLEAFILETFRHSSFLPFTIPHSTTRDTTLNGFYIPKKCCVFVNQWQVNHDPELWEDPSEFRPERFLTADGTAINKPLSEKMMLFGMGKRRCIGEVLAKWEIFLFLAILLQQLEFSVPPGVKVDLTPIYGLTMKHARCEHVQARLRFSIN
Nature of the series: Inhibition of CYP1A2. The class given is ADME.

Series [12] can be described thus: Oral bioavailability in human. The note with it: in vivo. It is filed as ADME, organism-based.
Series [13] in a line: Inhibition of matrix metalloprotease.
In the next series the target is Cytochrome P450 2D6 (Homo sapiens, UniProt P10635). Nature of the series: Inhibition of CYP2D6. It is filed as ADME.
Chain of Cytochrome P450 2D6 (P10635 whole entry): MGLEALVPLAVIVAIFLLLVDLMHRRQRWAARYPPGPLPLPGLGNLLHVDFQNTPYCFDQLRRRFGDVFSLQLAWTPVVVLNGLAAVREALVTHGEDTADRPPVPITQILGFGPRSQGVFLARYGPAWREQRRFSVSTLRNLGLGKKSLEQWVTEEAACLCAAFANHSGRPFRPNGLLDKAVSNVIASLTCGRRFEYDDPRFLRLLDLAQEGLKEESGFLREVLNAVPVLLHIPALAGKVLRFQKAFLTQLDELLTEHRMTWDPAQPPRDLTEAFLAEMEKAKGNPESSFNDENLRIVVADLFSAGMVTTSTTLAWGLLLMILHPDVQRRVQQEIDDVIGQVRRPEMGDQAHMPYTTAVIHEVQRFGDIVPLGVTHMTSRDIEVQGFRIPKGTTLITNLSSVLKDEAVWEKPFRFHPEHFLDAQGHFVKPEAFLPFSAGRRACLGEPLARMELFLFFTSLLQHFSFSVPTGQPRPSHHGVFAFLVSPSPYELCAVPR
Series [14] can be described thus: Volume of distribution at steady state in human. Conditions: in vivo, read-out: Vdss. It is filed as ADME, organism-based.
For a further series, the target named is Cytochrome P450 2C9 (Homo sapiens, UniProt P11712). Nature of the series: Inhibition of CYP2C9. The class given is ADME.
Chain of Cytochrome P450 2C9 (P11712 whole entry): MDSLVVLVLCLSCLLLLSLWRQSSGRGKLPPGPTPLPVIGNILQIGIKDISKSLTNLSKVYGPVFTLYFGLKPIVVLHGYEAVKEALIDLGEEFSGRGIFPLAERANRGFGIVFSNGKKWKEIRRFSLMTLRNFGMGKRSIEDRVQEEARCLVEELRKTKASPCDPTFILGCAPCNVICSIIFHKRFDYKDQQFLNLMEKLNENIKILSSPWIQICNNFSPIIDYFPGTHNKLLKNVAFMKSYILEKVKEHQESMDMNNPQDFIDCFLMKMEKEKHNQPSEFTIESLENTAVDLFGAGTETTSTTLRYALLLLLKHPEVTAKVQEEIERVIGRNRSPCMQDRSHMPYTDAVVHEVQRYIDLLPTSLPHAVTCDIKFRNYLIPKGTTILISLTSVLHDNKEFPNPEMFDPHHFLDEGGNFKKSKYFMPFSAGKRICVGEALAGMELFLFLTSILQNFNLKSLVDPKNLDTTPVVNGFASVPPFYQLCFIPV
The next series has as its system Hepacivirus hominis. Nature of the series: Inhibition of HCV RNA-directed RNA polymerase.

Activity calls are given as the source filed them. No cut-off for these calls is given here. Bounds are passed on as bounds.

Take `CN1CCN(Cc2cn(Cc3ccc(F)cc3)c3cnc(C(=O)N(C)O)cc23)CC1`: the EC50 in [1] came to 220 nM. The molecule further registered a half-inhibitory concentration (IC50) in series [2] of 534 nM. The molecule further displayed a CC50 in [3] above 224000 nM. Also, in [4], the hepatic extraction ratio at 4 h was determined as 0.55.

With `CN(O)C(=O)c1cc2c(CCCN3CCOCC3)cn(Cc3ccc(F)cc3)c2cn1`, in series [1], the EC50 was determined as 470 nM. Moreover, half-maximal inhibition in series [2] (IC50) was put at 559 nM. The molecule further returned a CC50 in series [3] above 10000 nM. Besides, the hepatic extraction ratio at 4 h in series [4] came to 0.98.

In series [2], `CN(O)C(=O)c1cc2ccn(Cc3ccc(F)cc3)c2cn1` yielded an IC50 of 250 nM. Besides, the CC50 in [3] was 135000 nM.

Take `COCCOCCCc1cn(Cc2ccc(F)cc2)c2cnc(C(=O)N(C)O)cc12`: the EC50 in series [1] came out at 220 nM. The half-inhibitory concentration (IC50) in [2] was found to be 552 nM. The molecule also showed a CC50 in series [3] above 10000 nM. For the same molecule, the hepatic extraction ratio at 4 h in series [4] is 0.97.

With `CN(O)C(=O)c1cc2c(COC3CCOCC3)cn(Cc3ccc(F)cc3)c2cn1`, in series [1], the EC50 came out at 57 nM. The IC50 in [2] amounted to 313 nM. In addition, the CC50 in series [3] is above 100000 nM. For the same molecule, in series [4], the hepatic extraction ratio at 4 h stood at 0.86.

`CN(O)C(=O)c1cc2c(CCCO)cn(Cc3ccc(F)cc3)c2cn1`: in series [1], the EC50 amounted to 41 nM. This molecule also registered an IC50 in series [2] of 340 nM. Besides, the CC50 in series [3] is above 10000 nM. Moreover, the hepatic extraction ratio at 4 h in series [4] was determined as 1.

As to `COCc1cn(Cc2ccc(F)cc2)c2cnc(C(=O)N(C)O)cc12`, the EC50 in [1] is 41 nM. For the same molecule, in series [2], the IC50 was 242 nM. In series [3], this molecule gave a CC50 of 266000 nM. Further, in series [4], the hepatic extraction ratio at 4 h was determined as 1.

With `COCCOCc1cn(Cc2ccc(F)cc2)c2cnc(C(=O)N(C)O)cc12`, in series [1], the EC50 came out at 29 nM. The same molecule gave a half-inhibitory concentration (IC50) in [2] of 382 nM. In [3], this molecule registered a CC50 above 100000 nM. Further, the hepatic extraction ratio at 4 h in [4] is 0.51.

`CN(O)C(=O)c1cc2c(CN3CCC(O)C3)cn(Cc3ccc(F)cc3)c2cn1` (stereo not given): in series [1], the EC50 was 747 nM. This molecule had an IC50 in series [2] of 1420 nM. The molecule further had a CC50 in [3] above 100000 nM. Moreover, the hepatic extraction ratio at 4 h in [4] turned out to be 0.55.

With `CN(O)C(=O)c1cc2c(CN3CCC[C@@H]3C(N)=O)cn(Cc3ccc(F)cc3)c2cn1`, in series [1], the EC50 was determined as 80 nM. This molecule also had a CC50 in [3] above 100000 nM.

Turning to `CN(O)C(=O)c1cc2c(CN3CCNC(=O)C3)cn(Cc3ccc(F)cc3)c2cn1`, the EC50 in series [1] is 150 nM. Also, the half-life in series [5] is 1.27 h. This molecule came in with an IC50 in series [2] of 388 nM. Further, the bioavailability in [6] was found to be 20%. The CC50 in series [3] is above 100000 nM. For the same molecule, in series [7], the Vd was 1.8 L/kg. The molecule also displayed a clearance in series [8] of 24 mL/min/kg. In addition, the hepatic extraction ratio at 4 h in [4] was determined as 0.3.

Take `CCOCCOCc1cn(Cc2ccc(F)cc2)c2cnc(C(=O)N(C)O)cc12`: the EC50 in series [1] came to 57 nM. Besides, the IC50 in series [2] was found to be 308 nM. The CC50 in [3] worked out at 81000 nM. In addition, the hepatic extraction ratio at 4 h in [4] came out at 0.57.

As for `CN(O)C(=O)c1cc2c(C(=O)N3CCC[C@@H]3CO)cn(Cc3ccc(F)cc3)c2cn1`, in [1], the EC50 was determined as 170 nM. Further, the half-inhibitory concentration (IC50) in [2] is 319 nM. The molecule also returned a CC50 in [3] above 32000 nM. Besides, in series [4], the hepatic extraction ratio at 4 h is 0.2.

As to `CN(O)C(=O)c1cc2ccn(Cc3ccc(F)cc3F)c2cn1`, in series [1], the EC50 turned out to be 39 nM. It took 250 nM to reach half-maximal inhibition in series [2] (IC50). In series [3], this molecule yielded a CC50 of 200000 nM.

With `CN(O)C(=O)c1cc2c(CO)cn(Cc3ccc(F)cc3)c2cn1`, the EC50 in series [1] stood at 54 nM. This molecule returned an IC50 in [2] of 145 nM. Besides, in [3], the CC50 was above 266000 nM. The hepatic extraction ratio at 4 h in series [4] was 1.

With `CN(O)C(=O)c1cc2c(CN3CCC[C@H]3C(N)=O)cn(Cc3ccc(F)cc3)c2cn1`, the IC50 at Cytochrome P450 3A4 is above 30000 nM; against Cytochrome P450 2C19 it was above 30000 nM; in [9], above 1000 nM; against Cytochrome P450 2C8 it was above 30000 nM; in series [11], above 30000 nM; against Cytochrome P450 1A2, above 30000 nM. Besides, the IC50 in series [13] was above 50000 nM; against Cytochrome P450 2D6, above 30000 nM; on Cytochrome P450 2C9, above 30000 nM. This molecule had a half-life in [5] of 6.2 h. The bioavailability in series [6] was 53%; in [12] it was 41%. In addition, the clearance in series [10] was determined as 5.5 mL/min/kg; in [8], 15 mL/min/kg. The molecule also came in with a CC50 in series [3] of 216000 nM. The Vd was found to be 2.32 L/kg in series [7] and 2.15 L/kg in [14]. Further, the inhibition entry in the series with Hepacivirus hominis is “inactive”.

In the case of `CC(C)NC(=O)c1cn(Cc2ccc(F)cc2)c2cnc(C(=O)N(C)O)cc12`, in [1], the EC50 was 110 nM. The midpoint of inhibition in [2], the IC50, lay at 251 nM. In addition, the CC50 in series [3] is above 100000 nM. The hepatic extraction ratio at 4 h in series [4] is 0.25.

Consider `CN(O)C(=O)c1cc2c(C(=O)NCCN3CCOCC3)cn(Cc3ccc(F)cc3)c2cn1`, for which the EC50 in [1] was found to be 210 nM. Further, the IC50 in series [2] was 503 nM. In addition, in series [3], the CC50 was 32000 nM. Further, the hepatic extraction ratio at 4 h in [4] amounted to 0.25.
